Results taken from patent publication US4562183A, “Perfluoro-1-azabicyclo(5,3,0)decane compounds useful as blood substitutes” (I.S.C. Chemicals Limited, priority 1982, dated 1985).
Read-outs that look alike come from different tables or passages of the source.

Experiments:
[1] = Stability of emulsion with yolk phospholipids; format: physicochemical; conditions: heating at 100° C. for 30 minutes and storage at 4° C. and 25° C. for 2 weeks
Method: In order to evaluate the feasibility of emulsification, ABCD was emulsified with yolk phospholipids by using a Manton-Gaulin homogenizer and the stability to heating at 100° C. for 30 minutes and storage at 4° C. and 25° C. for 2 weeks were examined.

[2] = Retention in body organs with time (gas chromatography); format: in vivo, rats; conditions: rat, 0.32 mL/100 g, 0.32 ml. fluorocarbon per 100 gm body weight; for concentration at 120 h: 5 Days; for concentration at 168 h: 7 Days (Av. of 2); for concentration at 240 h: 10 Days; for concentration at 504 h: 21 Days
Method: 4. RETENTION OF PERFLUORO-1-AZABICYCLO(5,3,0)DECANE BODY ORGANS WITH TIME
Gas chromatography results--rats injected with emulsion of ABCD (0.32 ml. fluorocarbon per 100 gm body weight). The following residual fluorocarbon concentrations were observed. (In mg. fluorocarbon/gm tissue).

[3] = Emulsion forming capacity with Pluronic F68, standing overnight; format: physicochemical; conditions: for Emulsification time to form emulsion: Pluronic F68 in deionised water, high speed mixer; for Separation (creaming) of the emulsion: standing at room temperature overnight, Pluronic F68
Method: To 10 ml. of perfluoro-1-azabicyclo(5,3,0)decane (ABCD) was added 10 ml. of solution made by dissolving 8.0 g of a non-ionic, polyoxyethylene-polyoxypropylene surfactant ('Pluronic F68', RTM) in 220 ml. of deionised water. The mixture was emulsified for a few minutes using a high speed mixer to form an emulsion having the appearance of diluted milk.
In a comparison test, an emulsion was formed using perfluorodecalin. An emulsion of similar appearance to that formed with ABCD required about 10 minutes emulsification.

[4] = Toxicity: weight gain of rats administered emulsion; format: in vivo; conditions: Wistar strain male rats, ABCD emulsion, 4 g/kg as ABCD
Method: (§1) ABCD was evaluated as candidate for an artificial blood substitute from the aspects of toxicity, feasibility of emulsification and excretion rate from the organs.

[5] = Excretion rate from the organs; format: in vivo, rats
Method: as §1

[6] = Oxygen solubility in fluorocarbon; format: physicochemical; conditions: oxygen-saturated at 20° C.; corrected for vapour pressure of fluorocarbon
Method: A portion of 20 ml. of ABCD was degassed by boiling and cooled to 20° C. while being bubbled with oxygen gas. The oxygen-saturated liquid was then degassed under vacuum and the gas evolved was collected and its volume measured at a known temperature and pressure. After allowing for the vapour pressure of the fluorocarbon, the solubility of oxygen was calculated to be in the range 45±10 mls of O2 (at 760 mm Hg & 0° C.) per 100 ml. of fluorocarbon. The solubility of oxygen in ABCD is thus adequate to permit the use of this fluorocarbon as an oxygen carrier for medical use.

[7] = Solubilities at 25° C. of perfluoro-1-azabicyclo(5,3,0)decane in solvents; format: physicochemical
Source text: Solubility of perfluoro-1-
azabicyclo(5,3,0)decane in […]

[8] = Base stability of fluorination product; format: physicochemical
[9] = aqueous media; cited from earlier work
[10] = in vivo; cited from earlier work
[11] = heart, read-out: Residual fluorocarbon concentration, heart
[12] = kidney, read-out: Residual fluorocarbon concentration, kidney
[13] = liver, read-out: Residual fluorocarbon concentration, liver
[14] = lung, read-out: Residual fluorocarbon concentration, lung
[15] = spleen, read-out: Residual fluorocarbon concentration, spleen

FC1(F)N2C(F)(F)C(F)(F)C(F)(F)C2(F)C(F)(F)C(F)(F)C(F)(F)C1(F)F (stereo not shown) [ABCD, perfluoro-1-azabicyclo(5,3,0)decane]
Stability of emulsion [1]: acceptably stable | concentration at 120 h [2, 11]: 130000 ng/g | concentration at 120 h [2, 12]: 170000 ng/g | concentration at 120 h [2, 13]: 1.18e+07 ng/g | concentration at 120 h [2, 14]: 560000 ng/g | concentration at 120 h [2, 15]: 4.35e+07 ng/g | concentration at 168 h [2, 11]: 450000 ng/g | concentration at 168 h [2, 12]: 100000 ng/g | concentration at 168 h [2, 13]: 6.73e+06 ng/g | concentration at 168 h [2, 14]: 100000 ng/g | concentration at 168 h [2, 15]: 2.23e+07 ng/g | concentration at 240 h [2, 11]: 260000 ng/g | concentration at 240 h [2, 12]: 190000 ng/g | concentration at 240 h [2, 13]: 2.51e+06 ng/g | concentration at 240 h [2, 14]: 160000 ng/g | concentration at 240 h [2, 15]: 1.2e+08 ng/g | concentration at 336 h ([2]; 14 Days (* not Av. of 2), spleen, read-out: Residual fluorocarbon concentration, spleen): 3.69e+06 ng/g | concentration at 336 h ([2]; 14 Days (Av. of 2), heart, read-out: Residual fluorocarbon concentration, heart): 180000 ng/g | concentration at 336 h ([2]; 14 Days (Av. of 2), kidney, read-out: Residual fluorocarbon concentration, kidney): 150000 ng/g | concentration at 336 h ([2]; 14 Days (Av. of 2), liver, read-out: Residual fluorocarbon concentration, liver): 380000 ng/g | concentration at 336 h ([2]; 14 Days (Av. of 2), lung, read-out: Residual fluorocarbon concentration, lung): 150000 ng/g | concentration at 504 h [2, 11]: 160000 ng/g | concentration at 504 h [2, 12]: 160000 ng/g | concentration at 504 h [2, 13]: 40000 ng/g | concentration at 504 h [2, 14]: 150000 ng/g | concentration at 504 h [2, 15]: 1.12e+06 ng/g | Emulsification time to form emulsion [3]: a few minutes | Separation (creaming) of the emulsion [3]: minor amount of separation ('creaming') | Weight gain [4]: gained weight favourably | Amount detected in all organs ([5]; 2 weeks after injection): only trace amounts | Elimination from the organs ([5]; after injection): very rapidly eliminated from the organs | Solubility of oxygen [6]: 45±10 mls of O2 (at 760 mm Hg & 0° C.) per 100 ml. of fluorocarbon | Solubility in acetone ([7]; acetone): 6.84 g in 100 g solvent | Solubility in hexane ([7]; hexane): miscible | Solubility in methanol ([7]; methanol): 1.36 g in 100 g solvent | Solubility in trichloro-trifluoroethane ([7]; trichloro-trifluoroethane): miscible | Solubility in water ([7]; water): hardly soluble

FC(F)(F)C1(F)N2C(F)(F)C(F)(F)C(F)(F)C2(F)C(F)(F)C(F)(F)C(F)(F)C1(F)F (stereo not shown) [perfluoro-1-aza-2-methyl(5,3,0)decane]
Stability to base [8]: base-stable

FC(F)(F)C(F)(F)C(F)(F)N(C(F)(F)C(F)(F)C(F)(F)F)C(F)(F)C(F)(F)C(F)(F)F [perfluorotripropylamine]
Emulsion stability [9]: gives a more stable emulsion than perfluorodecalin | Retention time in the body [10]: longer retention time in the body

FC1(F)C(F)(F)C(F)(F)C2(F)C(F)(F)C(F)(F)C(F)(F)C(F)(F)C2(F)C1(F)F (stereo not shown) [perfluorodecalin, reference compound]
Emulsification time to form emulsion [3]: about 10 minutes | Separation (creaming) of the emulsion [3]: pronounced creaming | Emulsion stability [9]: does not easily give a stable emulsion in aqueous media
